Legend:
human CB1 [1] = target: T1, human CB1 (Homo sapiens, UniProt P21554); assay: fluorescence-based membrane potential assay (GIRK activation) in AtT20 cells; format: cell-based; design: expressed in transfected cells; host or cells: mouse AtT20 FlpIn cells; conditions: for hCB1 Emax ±SEM: normalised to 1 μM CP55,940; for hCB1 maximal response at 10 μM (footnote d): highest concentration tested, curve not fitted
human CB2 [2] = target: T2, human CB2 (Homo sapiens, UniProt P34972); assay: as above; format: cell-based; design: expressed in transfected cells; host or cells: mouse AtT20 FlpIn cells; conditions: for hCB2 Emax ±SEM: normalised to 1 μM CP55,940
T2 sequence (P34972 whole entry): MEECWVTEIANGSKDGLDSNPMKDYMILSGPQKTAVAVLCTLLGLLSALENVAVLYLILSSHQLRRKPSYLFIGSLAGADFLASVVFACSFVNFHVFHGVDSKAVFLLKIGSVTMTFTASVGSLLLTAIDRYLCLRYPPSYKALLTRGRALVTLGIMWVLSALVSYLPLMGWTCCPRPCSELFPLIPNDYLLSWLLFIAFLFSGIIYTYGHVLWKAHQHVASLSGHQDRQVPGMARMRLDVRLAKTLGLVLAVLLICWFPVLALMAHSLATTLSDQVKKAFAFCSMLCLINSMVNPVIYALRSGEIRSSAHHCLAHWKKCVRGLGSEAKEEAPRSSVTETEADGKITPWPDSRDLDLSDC

human CB1 [3] = target: T1, human CB1; assay: competitive radioligand binding assay, displacement of [3H]CP55,940, HEK cell membranes; design: expressed in transfected cells; host or cells: HEK293 cells, P2 membrane preparation; conditions: [3H]CP55,940 1 nM
human CB2 [4] = target: T2, human CB2; assay: as above; design: expressed in transfected cells; host or cells: HEK293 cells, P2 membrane preparation; conditions: [3H]CP55,940 1 nM
[5] = hCB1 EC50, AtT20-hCB1, value in brackets after pEC50
[6] = hCB2 EC50, AtT20-hCB2, value in brackets after pEC50
[7] = hCB1 Ki, value in brackets after pKi
[8] = hCB2 Ki, value in brackets after pKi
[9] = AtT20-hCB1, DNC = did not converge, ND = < 50% change in fluorescence at 10 μM
[10] = hCB2 pKi ±SEM, mean ± SEM of 3 to 6 independent experiments
[11] = hCB1 pEC50 ±SEM, AtT20-hCB1, DNC = did not converge, ND = < 50% change in fluorescence at 10 μM
[12] = hCB1 pKi ±SEM, mean ± SEM of 3 to 6 independent experiments

T1 sequence (P21554 whole entry): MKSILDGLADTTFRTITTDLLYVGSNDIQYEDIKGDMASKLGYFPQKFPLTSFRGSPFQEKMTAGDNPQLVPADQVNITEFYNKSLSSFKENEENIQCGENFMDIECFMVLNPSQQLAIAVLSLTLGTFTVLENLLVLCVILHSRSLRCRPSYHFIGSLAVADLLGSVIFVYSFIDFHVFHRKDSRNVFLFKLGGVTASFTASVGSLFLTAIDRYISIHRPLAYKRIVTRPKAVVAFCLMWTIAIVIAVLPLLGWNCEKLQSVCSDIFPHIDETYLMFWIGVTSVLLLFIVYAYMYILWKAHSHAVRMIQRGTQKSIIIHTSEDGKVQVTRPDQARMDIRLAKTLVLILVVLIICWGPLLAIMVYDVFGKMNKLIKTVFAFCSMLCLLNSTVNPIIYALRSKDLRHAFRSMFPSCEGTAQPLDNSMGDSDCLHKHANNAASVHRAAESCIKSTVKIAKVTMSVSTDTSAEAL

Row | SMILES | melting point [°C] | hCB1 Emax ±SEM (human CB1 [1]; AtT20-hCB1) | EC50 (human CB1 [1]; [5]) [nM] | hCB2 Emax ±SEM (human CB2 [2]; AtT20-hCB2) | EC50 (human CB2 [2]; [6]) [nM] | Ki (human CB1 [3]; [7]) [nM] | Ki (human CB2 [4]; [8]) [nM] | hCB1 maximal response at 10 μM (footnote d) (human CB1 [1]; AtT20-hCB1) | hCB1 pEC50 ±SEM (human CB1 [1]; [9]) | hCB1 maximal response at 10 μM (footnote d) (human CB1 [1]; AtT20-hCB1, listed as APP-4CN-BUTICA (10)) | Ki (human CB2 [4]; [10]) [nM] | EC50 (human CB1 [1]; [11]) [nM] | hCB1 maximal response at 10 μM (footnote d) (human CB1 [1]; AtT20-hCB1, listed as APP-4F-BUT7AICA (33)) | Ki (human CB1 [3]; [12]) [nM] | EC50 (human CB2 [2]; hCB2 pEC50 ±SEM, AtT20-hCB2) [nM] | hCB1 maximal response at 10 μM (footnote d) (human CB1 [1]; AtT20-hCB1, listed as APP-4F-BUTICA (27))
1 | COC(=O)[C@@H](NC(=O)c1cn(CCCCF)c2ncccc12)C(C)(C)C [Compound 39, methyl (S)-2-(1-(4-fluorobutyl)-1H-pyrrolo[2,3-b]pyridine-3-carboxamido)-3,3-dimethylbutanoate] | 56 to 58 | 109 ± 3 % CP55,940 | 22.2 | 95 ± 2 % CP55,940 | 3.88 | 107 | 2.14 |  |  |  |  |  |  |  |  | 
2 | CC(C)[C@H](NC(=O)c1cn(CCCCC#N)c2ncccc12)C(N)=O [Compound 14, (S)-N-(1-amino-3-methyl-1-oxobutan-2-yl)-1-(4-cyanobutyl)-1H-pyrrolo[2,3-b]pyridine-3-carboxamide] | 181 to 182 |  |  | 87 ± 5 % CP55,940 | 390 | 2570 | 3240 | 80 ± 3^d % CP55,940 | DNC^b |  |  |  |  |  |  | 
3 | N#CCCCCn1cc(C(=O)N[C@@H](Cc2ccccc2)C(N)=O)c2ccccc21 [Compound 10, (S)-N-(1-amino-1-oxo-3-phenylpropan-2-yl)-1-(4-cyanobutyl)-1H-indole-3-carboxamide] | 84 to 85 |  |  | 95 ± 3 % CP55,940 | 98.4 | 3310 | 776 | submaximal agonist activity | DNC^b | 85 ± 3^d % CP55,940 |  |  |  |  |  | 
4 | COC(=O)[C@H](Cc1ccccc1)NC(=O)c1cn(CCCCF)c2ncccc12 [Compound 40, methyl (1-(4-fluorobutyl)-1H-pyrrolo[2,3-b]pyridine-3-carbonyl)-L-phenylalaninate] | 109 to 112 | 122 ± 10 % CP55,940 | 637 | 110 ± 6 % CP55,940 | 26.9 | 880 |  |  |  |  | 28.8 |  |  |  |  | 
5 | COC(=O)[C@@H](NC(=O)c1cn(CCCCC#N)c2ccccc12)C(C)(C)C [Compound 18, methyl (S)-2-(1-(4-cyanobutyl)-1H-indole-3-carboxamido)-3,3-dimethylbutanoate] | 124 to 127 | 111 ± 3 % CP55,940 | 2.68 | 101 ± 4 % CP55,940 | 4.04 | 6.61 | 2.04 |  |  |  |  |  |  |  |  | 
6 | CC(C)(C)[C@H](NC(=O)c1nn(CCCCC#N)c2ccccc12)C(N)=O [Compound 12, (S)-N-(1-amino-3,3-dimethyl-1-oxobutan-2-yl)-1-(4-cyanobutyl)-1H-indazole-3-carboxamide] | 82 to 86 | 109 ± 2 % CP55,940 |  | 96 ± 2 % CP55,940 | 1.76 | 8.13 | 2.57 |  |  |  |  | 0.331 |  |  |  | 
7 | NC(=O)[C@H](Cc1ccccc1)NC(=O)c1cn(CCCCF)c2ncccc12 [Compound 33, (S)-N-(1-amino-1-oxo-3-phenylpropan-2-yl)-1-(4-fluorobutyl)-1H-pyrrolo[2,3-b]pyridine-3-carboxamide] | 153 to 154 |  |  | 99 ± 12 % CP55,940 | 1170 |  | 2400 | submaximal agonist activity |  |  |  |  | 25 ± 14^d % CP55,940 | > 10000 |  | 
8 | COC(=O)[C@@H](NC(=O)c1cn(CCCCF)c2ccccc12)C(C)C [Compound 34, methyl (1-(4-fluorobutyl)-1H-indole-3-carbonyl)-L-valinate] | 111 to 114 | 116 ± 3 % CP55,940 | 76.9 | 102 ± 2 % CP55,940 | 11.4 | 97.7 | 26.9 |  |  |  |  |  |  |  | 11.2 | 
9 | CC(C)(C)[C@H](NC(=O)c1cn(CCCCF)c2ccccc12)C(N)=O [Compound 26, (S)-N-(1-amino-3,3-dimethyl-1-oxobutan-2-yl)-1-(4-fluorobutyl)-1H-indole-3-carboxamide] | 92 to 94 | 110 ± 4 % CP55,940 | 40.4 | 105 ± 4 % CP55,940 | 44.1 |  | 8 |  |  |  |  |  |  | 34.7 |  | 
10 | CC(C)[C@H](NC(=O)c1cn(CCCCC#N)c2ccccc12)C(N)=O [Compound 5, (S)-N-(1-amino-3-methyl-1-oxobutan-2-yl)-1-(4-cyanobutyl)-1H-indole-3-carboxamide] | 177 to 180 | 111 ± 5 % CP55,940 | 400 | 100 ± 2 % CP55,940 | 75.9 | 550 | 603 |  |  |  |  |  |  |  |  | 
11 | CC(C)[C@H](NC(=O)c1cn(CCCCF)c2ccccc12)C(N)=O [Compound 25, (S)-N-(1-amino-3-methyl-1-oxobutan-2-yl)-1-(4-fluorobutyl)-1H-indole-3-carboxamide] | 225 to 227 | 108 ± 3 % CP55,940 | 96.5 | 97 ± 2 % CP55,940 | 23.5 | 1000 | 82 |  |  |  |  |  |  |  |  | 
12 | COC(=O)[C@H](Cc1ccccc1)NC(=O)c1cn(CCCCC#N)c2ccccc12 [Compound 19, methyl (1-(4-cyanobutyl)-1H-indole-3-carbonyl)-L-phenylalaninate] | 144 to 146 | 109 ± 3 % CP55,940 | 35.5 | 105 ± 3 % CP55,940 | 8.44 | 85.1 | 8.71 |  |  |  |  |  |  |  |  | 
13 | COC(=O)[C@H](Cc1ccccc1)NC(=O)c1cn(CCCCF)c2ccccc12 [Compound 35, methyl (1-(4-fluorobutyl)-1H-indole-3-carbonyl)-L-phenylalaninate] | 124 to 126 | 105 ± 2 % CP55,940 | 36.6 | 100 ± 2 % CP55,940 | 10.1 | 270 | 6.1 |  |  |  | 6.03 |  |  |  |  | 
14 | COC(=O)[C@H](Cc1ccccc1)NC(=O)c1cn(CCCCC#N)c2ncccc12 [Compound 24, methyl (1-(4-cyanobutyl)-1H-pyrrolo[2,3-b]pyridine-3-carbonyl)-L-phenylalaninate] | 102 to 105 | 110 ± 5 % CP55,940 | 189 | 104 ± 2 % CP55,940 | 14.3 | 380 | 55 |  |  |  |  | 186 |  |  |  | 
15 | NC(=O)[C@H](Cc1ccccc1)NC(=O)c1cn(CCCCF)c2ccccc12 [Compound 27, (S)-N-(1-amino-1-oxo-3-phenylpropan-2-yl)-1-(4-fluorobutyl)-1H-indole-3-carboxamide] | 102 to 104 |  |  | 108 ± 8 % CP55,940 | 306 | 3200 | 170 | submaximal agonist activity | DNC^b |  | 174 |  |  | 3160 |  | 82 ± 4^d % CP55,940
